This is an account of results in patent US7943633B2, “Alkaloid compounds and their use as anti-malarial drugs” (Universite Pierre et Marie Curie (Paris VI), priority 2004, dated 2011).

The nature of series [1]: In vitro cytotoxicity, neutral red, KB cells. Type of series: cell-based. The settings on record: human, KB carcinoma cells (ATCC CCL-17), 72 hours incubation, read-out: CI50 cytotoxicity KB (converted). Here is the method:
(§1) Stock solutions of testing compounds were prepared in H2O/DMSO (9/1).
(§2) After an incubation of 72 hours at 37° C. under a 5% CO2 atmosphere, 0.02% of neutral red in PBS was added.
(§3) 24 hours later, culture media were eliminated and cell membranes were lysed by addition of 1% of SDS in water.
(§4) Cell growth was estimated by colorimetric measurement of stained living cells, incorporating neutral red. Optical density was determined at 540 nm on a Titertek Multiskan photometer.
(§5) The Cl50 value was defined as the concentration of compound necessary to inhibit the cell growth to 50% of the control.

Series [2] is described as follows: In vitro cytotoxicity, neutral red, HT29 cells. Type of series: cell-based. The settings on record: human, HT29 colon tumor cells (ATCC HTB-38), 72 hours incubation, read-out: CI50 cytotoxicity HT29 (converted). The protocol:
as §1, §2, §3, §4, §5

For series [3], the system named is Plasmodium yoelii yoelii 265BY. In words: In vitro inhibition of P. yoelii yoelii 265BY growth (hepatic stage) in primary murine hepatocytes. The format is cell-based. The settings on record: for Selectivity index CI50 KB/CI50 yoelii: ratio between CI50 of cytotoxicity (KB) and CI50 of anti-malarial activity. The protocol:
Primary cultures of mouse hepatocytes were isolated from livers of Swiss mice which were 6 to 8 weeks old by perfusion with collagenase (1 g/L) and purified through a 60% Percoll gradient.
The hepatocytes were cultured in sterile chambers (Lab-Tek) at the rate of 90,000 cells in 0.3 mL of complete culture medium as defined thereafter per well and incubated overnight at 37° C. under a 4% CO2 atmosphere. The hepatocytes' complet culture medium was Williams' E culture medium supplemented with 10% of decomplemented foetal calf serum, 1% glutamine, 1% Na pyruvate, 1% of a mixture of insulin, transferrine and selenium, 1% of non-essential amino-acids and with an antibiotic mixture comprising 1% of a solution of penicillin and streptomycine, 1% augmentin and […] flucytosine.
The parasites infecting the hepatocytes; i.e. the sporozoites, were recovered by dissection of infected anopheles mosquitoes salivary glands.
After grinding them in a Potter grinder with culture medium, the suspension was filtered on a 40 μm mesh filter and centrifuged (15,000 rpm) at 4° C. for 2 mn. The pellet was reintroduced in the complete culture medium. The sporozoites were then counted in a “Cell Vu” counter (CML) and the concentration was adjusted at 100,000 sporozoites per 70 μL, concentration needed for infection.
One day after, the hepatocytes were infected by the above sporozoites from salivary glands of infected anopheles mosquitoes at the rate of 100,000 sporozoites per well in the presence or absence of the product to be tested. When the infection had appeared, the medium was supplemented with 10^−7 M dexamethasone. The products were first solubilized in DMSO.
The infected hepatocytes were washed and fed with culture medium containing the test product, 3 hours and then 24 hours after the infection.
The cultures were stopped by treatment with a cold fixative methanol solution, 48 hours after the infection.
Parasites obtained in schizont stage were immunomarked firstly, with a serum isolated from BALB/c mice immunized with a recombinant fragment from the N-terminal of the recombinant protein I72 that reacted against HSP70 of Plasmodium and secondly with an antibody—a mouse anti-immunoglobulin—conjugated to FITC. Evans Blue and DAPI, a nucleic acid marker, were added to the hepatocytes simultaneously. The schizonts were then counted with a fluorescent microscope.
(§6) The Cl50 value (concentration causing 50% of inhibition in the number of parasites compared to controls wells, non treated) is the mean value of 3 independent evaluations through StatView SI Graphics.

Series [4] deals with Plasmodium yoelii yoelii 265BY. In words: In vivo antimalarial activity in Swiss mice infected with sporozoites. The settings on record: for number of parasited red blood cells (parasitemia): compared to control group; for Number of parasited mice/total mice: 100 mg/kg fed four times. Here is the method: 40 Swiss mice (six week old) have been subjected to the in vivo assay. They have been allotted in two groups: • a group of 20 mice were fed with compound (1) diluted in sterile water at a dose of 100 mg/kg four times; 24 hours and 1 hour before infection, 24 hours and 40 hours after infection during the hepatic stage period. • a control group of 20 mice were fed with sterile water at the same times.
The infection has been performed by retro-orbital injection of 4,000 sporozoites of Plasmodium yoelii yoelii 265BY in 100 μl phospate-buffered saline per mouse.
The parasitemia was monitored from the third day after the infection D3 when the parasites are liberated from the liver and enter into the blood circulation and each day until the 23rd day D23 after infection. The monitoring was performed by blood smears taken from the tail vein of the mice. The smears were stained with Giemsa and parasited red blood cells were counted with a microscope.
The parasitemia was calculated according to the following formula: Parasited red blood cell number×100/total red blood cell number.

Series [5] has as its system Plasmodium falciparum NF54. Description: In vitro inhibition of P. falciparum NF54 (hepatic stage) in human hepatocytes. Type of series: cell-based. Particulars: NF54, Hepatocyte, 120 h, fixed 5 days after infection, read-out: CI50 activity P. falciparum NF54. Here is the method:
B—Human Model: Hepatic Stage of Plasmodium falciparum NF54
Human hepatocytes were obtained by enzymatic perfusion of fragments of liver of human adults which were submitted to partial hepatectomy.
The hepatocytes were infected at 24 hours of their culture by sporozoites obtained from salivary glands of P. falciparum infecting anopheles mosquitoes stephensi (Lab. of Pr. W. Eling, Univ. Of Nijmegen, NL).
The culture medium containing the test product was changed 3 hours after infection, and then renewed at least, each 24 hours during the experiment.
The cultures were fixed 5 days after infection, with the same method as described for the murine hepatocytes.
as §6

Setting [6] is: Plasmodium yoelii, Hepatocyte, 48 h, read-out: CI50 activity P. yoelii 265BY.

pIC50: −log10 of the molar value. “And” between values parts separate entries of the source, which are not always exact repeats. Equal entries are not always repeated. Where two headings read alike, the source gives them in different places.

As to `CCCN1CC[C@@]23C[C@H](O)[C@H](O)C(OC)=C2[C@@H]1[C@H](O)c1ccc(OC)c(O)c13` [Compound (4), N-propyl-4,6,7,10-tetrahydroxy-8,14, didehydro-3,8-dimethoxy-morphinan], the IC50 at 72 h in series [1] is 40.4 µg/mL and 103 µM; in series [2], > 80 µg/mL and > 204 µM. For the same compound, the IC50 in series [3] (setting [6]) is 4.93 µg/mL and 12.6 µM. In addition, the “Selectivity index CI50 KB/CI50 yoelii” value in series [3] is 8.2.

Consider `COc1cc(NC(C)CCCN)c2ncccc2c1` (centres unmarked) [primaquine, reference compound], for which the IC50 at 72 h in series [1] was 2 µg/mL and 7 µM; in series [2], 20.1 µg/mL and 70.5 µM. The IC50 in series [3] (setting [6]) was 0.16 µg/mL and 600 nM. In series [3], the “Selectivity index CI50 KB/CI50 yoelii” value stood at 11.7.

Take `O=C1C(O)=C([C@H]2CC[C@H](c3ccc(Cl)cc3)CC2)C(=O)c2ccccc21` [Atovaquone, atovaquone, reference compound]: the IC50 at 72 h in series [1] is 18.6 µg/mL and 50.8 µM; in series [2], 44.6 µg/mL and 122 µM. In addition, in series [3] (Plasmodium yoelii, Hepatocyte, murine hepatocytes, schizonts counted 48 hours after infection, mean of 3 evaluations, read-out: CI50 activity P. yoelii 265BY), the IC50 came to 0.021 µg/mL. The pIC50 in series [3] (Plasmodium yoelii, Hepatocyte, murine hepatocytes, schizonts counted 48 hours after infection, read-out: CI50 activity P. yoelii 265BY) was 7.24. Besides, in series [3], the “Selectivity index CI50 KB/CI50 yoelii” value is 891.2.

`COC1=C2[C@H]3NCC[C@]2(C[C@H](O)[C@@H]1O)c1c(ccc(OC)c1O)[C@H]3O` [Compound (1), 4,6,7,10-tetrahydroxy-8,14-didehydro-3,8-dimethoxy-morphinan]: the “number of parasited red blood cells (parasitemia)” value in series [4] (100 mg/kg) was “reduces parasitemia”; in series [4] (100 mg/kg, listed as compound (1)), “significant decrease”. Moreover, the “total protection against malaria infection in mice” value in series [4] (100 mg/kg, oral administration) amounted to 70%. For the same compound, in series [4] (100 mg/kg, control group 75%), the “survival of mice at D23” value came out at 90%. Further, the “delay of parasitemia for treated mice not protected, compared to control” value in series [4] (100 mg/kg, the 30% of treated mice not protected) was ≥ 3 days. The “Number of parasited mice/total mice” value is reported as 0/20 in series [4] (D3 post-infection); 0/20 in series [4] (D4 post-infection); 0/20 in series [4] (D5 post-infection); 1/20 in series [4] (D6 post-infection); 4/20 in series [4] (D7 post-infection); 6/20 in series [4] (D8 post-infection). In addition, in series [4] (D23 post-infection), the “Number of parasited mice/total mice” value is given as 6/18. In addition, the IC50 in series [5] is 1.51 µg/mL and 4.3 µM; in series [3] (setting [6]) it was 1.08 µg/mL and 3.1 µM. The IC50 at 72 h is 1.99 µg/mL and 5.7 µM in series [1]; 22 µg/mL and 63 µM in series [2]. In series [3], the “Selectivity index CI50 KB/CI50 yoelii” value is recorded as 1.8.

With `COC1=C2[C@@H]3[C@H](O)c4ccc(OC)c(O)c4[C@]2(CCN3C2CCCC2)C[C@H](O)[C@@H]1O` [Compound (8), N-cyclopentyl-4,6,7,10-tetrahydroxy-8,14, didehydro-3,8-dimethoxy-morphinan], the IC50 at 72 h in series [1] is 27.6 µg/mL and 66.3 µM; in series [2], > 80 µg/mL and > 192 µM. In addition, the IC50 in series [3] (setting [6]) is 1.46 µg/mL and 3.5 µM. Moreover, the “Selectivity index CI50 KB/CI50 yoelii” value in series [3] was 18.9.

For `CC[C@]1(O)C[C@@H]2CN(CCc3c([nH]c4ccccc34)[C@@](C(=O)OC)(c3cc4c(cc3OC)N(C)[C@H]3[C@@](O)(C(=O)OC)[C@H](OC(C)=O)[C@]5(CC)C=CCN6CC[C@]43[C@@H]65)C2)C1` [Vinblastine, vinblastine, reference compound], the IC50 at 72 h is 0.018 µg/mL and 22 nM in series [1]; 0.008 µg/mL and 9.9 nM in series [2].

Turning to `COC1=C2[C@@H]3[C@H](O)c4ccc(OC)c(O)c4[C@]2(CCN3Cc2ccc(O)cc2)C[C@H](O)[C@@H]1O` [Compound (6), N-4-hydroxybenzyl-4,6,7,10-tetrahydroxy-8,14, didehydro-3,8-dimethoxy-morphinan], the IC50 at 72 h is 9.53 µg/mL and 20.9 µM in series [1]; 49 µg/mL and 108 µM in series [2]. In series [3] (setting [6]), the IC50 is 6.44 µg/mL and 14.2 µM. Further, the “Selectivity index CI50 KB/CI50 yoelii” value in series [3] is recorded as 1.5.

Consider `COC1=C2[C@@H]3[C@H](O)c4ccc(OC)c(O)c4[C@]2(CCN3Cc2ccc(OC)cc2)C[C@H](O)[C@@H]1O` [Compound (5), N-4-methoxybenzyl-4,6,7,10-tetrahydroxy-8,14, didehydro-3,8-dimethoxy-morphinan], for which the IC50 at 72 h in series [1] was 21.2 µg/mL and 45.3 µM; in series [2] it was > 80 µg/mL and > 170 µM. Also, the IC50 in series [3] (setting [6]) is 11.4 µg/mL and 24.2 µM. In series [3], the “Selectivity index CI50 KB/CI50 yoelii” value is recorded as 1.9.

Consider `COC1=C2[C@@H]3Cc4ccc(OC)c(O)c4[C@]2(CCN3)C[C@H](O)[C@@H]1O` [Compound (2), 4,6,7-trihydroxy-8,14-didehydro-3,8-dimethoxy-morphinan], for which the IC50 in series [5] is 3.36 µg/mL and 10.1 µM; in series [3] (setting [6]), 1.5 µg/mL and 4.5 µM. Also, the IC50 at 72 h in series [1] was 1.3 µg/mL and 3.9 µM; in series [2] it was 12.2 µg/mL and 36.8 µM. In series [3], the “Selectivity index CI50 KB/CI50 yoelii” value turned out to be 0.9.

Take `COC1=C2[C@@H]3[C@H](O)c4ccc(OC)c(O)c4[C@]2(CCN3Cc2ccc(Br)cc2)C[C@H](O)[C@@H]1O` [Compound (7), N-4-bromobenzyl-4,6,7,10-tetrahydroxy-8,14, didehydro-3,8-dimethoxy-morphinan]: the IC50 at 72 h is 15.8 µg/mL and 30.5 µM in series [1]; > 80 µg/mL and > 154 µM in series [2]. Moreover, in series [3] (setting [6]), the IC50 is 2.19 µg/mL and 4.2 µM. Further, in series [3], the “Selectivity index CI50 KB/CI50 yoelii” value stood at 7.3.

As to `COC1=C2[C@@H]3[C@H](O)c4ccc(OC)c(O)c4[C@]2(CCN3C)C[C@H](O)[C@@H]1O` [Compound (3), N-methyl-4,6,7,10-tetrahydroxy-8,14, didehydro-3,8-dimethoxy-morphinan], the IC50 at 72 h is 32.3 µg/mL and 89 µM in series [1]; > 80 µg/mL and > 220 µM in series [2]. Further, the IC50 in series [3] (setting [6]) was 2.09 µg/mL and 5.8 µM. The “Selectivity index CI50 KB/CI50 yoelii” value in series [3] worked out at 15.5.

Take `O=c1[nH]cc(F)c(=O)[nH]1` [5-fluorouracile, reference compound]: the IC50 at 72 h in series [1] was 0.047 µg/mL and 360 nM; in series [2], 54.9 µg/mL and 422 µM.
